ChEMBL document CHEMBL3885861, “Open TG-GATES”

Species: Rattus norvegicus
Assay: Open TG-GATES - Regimen: Single
Type: toxicity, organism-based, Sprague-Dawley
Design: regimen Single, gender Male, age 6 weeks
Conditions: in vivo, po, 100 mg/kg, route gavage, dose level Low; for APTT / Bas / Eos / Fbg / Hb / Ht / Lym / MCH / MCHC / MCV / Mono / Neu / PT / Plat / RBC / Ret / WBC: tissue Blood; for KIDNEY_L / KIDNEY_R / KIDNEY_TOTAL: tissue Kidney; for LIVER: tissue Liver; for A/G / ALP / ALT / AST / BUN / CRE / Ca / Cl / DBIL / GLC / IP / K / LDH / Na / PL / RALB / TBIL / TC / TG / TP / gamma-GTP: tissue Plasma

Compound: CC(S)C(=O)NCC(=O)O (configuration not stated) [TIOPRONIN]
- TERMINAL_BW (3 h): 208 g
- APTT (3 h): 22.4 s
- Bas (3 h): 0%
- Eos (3 h): 0.6%
- Fbg (3 h): 295.6 mg/dL
- Hb (3 h): 13 g/dL
- Ht (3 h): 39.9%
- Lym (3 h): 79.2%
- MCH (3 h): 20 pg
- MCHC (3 h): 32.6%
- MCV (3 h): 61.6 fL
- Mono (3 h): 2.4%
- Neu (3 h): 16.8%
- PT (3 h): 16.5 s
- Plat (3 h): 113.3 x10_4/uL
- RBC (3 h): 649.2 x10_4/ul
- Ret (3 h): 7.6%
- WBC (3 h): 73.6 x10_2/uL
- KIDNEY_L (3 h): 0.9 g
- KIDNEY_R (3 h): 0.9 g
- KIDNEY_TOTAL (3 h): 1.8 g
- LIVER (3 h): 9 g
- A/G (3 h): 1.2
- ALP (3 h): 1568.4 IU/L
- ALT (3 h): 48.2 IU/L
- AST (3 h): 75.8 IU/L
- BUN (3 h): 10.2 mg/dL
- CRE (3 h): 0.1 mg/dL
- Ca (3 h): 10.7 mg/dL
- Cl (3 h): 106.8 meq/L
- DBIL (3 h): 0 mg/dL
- GLC (3 h): 185.6 mg/dL
- IP (3 h): 8.6 mg/dL
- K (3 h): 4.1 meq/L
- LDH (3 h): 172.8 IU/L
- Na (3 h): 142.8 meq/L
- PL (3 h): 117.6 mg/dL
- RALB (3 h): 2.9 g/dL
- TBIL (3 h): 0.02 mg/dL
- TC (3 h): 68.6 mg/dL
- TG (3 h): 49.6 mg/dL
- TP (3 h): 5.4 g/dL
- gamma-GTP (3 h): 1.8 IU/L
- TERMINAL_BW (6 h): 205.7 g
- APTT (6 h): 22.4 s
- Bas (6 h): 0%
- Eos (6 h): 1%
- Fbg (6 h): 301.8 mg/dL
- Hb (6 h): 12.9 g/dL
- Ht (6 h): 39.5%
- Lym (6 h): 75.8%
- MCH (6 h): 20.1 pg
- MCHC (6 h): 32.6%
- MCV (6 h): 61.6 fL
- Mono (6 h): 2.6%
- Neu (6 h): 20.2%
- PT (6 h): 16 s
- Plat (6 h): 118.6 x10_4/uL
- RBC (6 h): 641.6 x10_4/ul
- Ret (6 h): 7.7%
- WBC (6 h): 93.1 x10_2/uL
- KIDNEY_L (6 h): 0.9 g
- KIDNEY_R (6 h): 0.9 g
- KIDNEY_TOTAL (6 h): 1.9 g
- LIVER (6 h): 8.8 g
- A/G (6 h): 1.2
- ALP (6 h): 1456.8 IU/L
- ALT (6 h): 39.6 IU/L
- AST (6 h): 70.8 IU/L
- BUN (6 h): 8.4 mg/dL
- CRE (6 h): 0.1 mg/dL
- Ca (6 h): 10.6 mg/dL
- Cl (6 h): 105.8 meq/L
- DBIL (6 h): 0 mg/dL
- GLC (6 h): 185.2 mg/dL
- IP (6 h): 9.8 mg/dL
- K (6 h): 4.3 meq/L
- LDH (6 h): 154.6 IU/L
- Na (6 h): 144 meq/L
- PL (6 h): 125.6 mg/dL
- RALB (6 h): 2.9 g/dL
- TBIL (6 h): 0.018 mg/dL
- TC (6 h): 76.4 mg/dL
- TG (6 h): 50.8 mg/dL
- TP (6 h): 5.4 g/dL
- gamma-GTP (6 h): 2 IU/L
- TERMINAL_BW (9 h): 205.8 g
- APTT (9 h): 22.6 s
- Bas (9 h): 0%
- Eos (9 h): 0.2%
- Fbg (9 h): 291.8 mg/dL
- Hb (9 h): 12.5 g/dL
- Ht (9 h): 39.1%
- Lym (9 h): 80.6%
- MCH (9 h): 20.4 pg
- MCHC (9 h): 32%
- MCV (9 h): 63.7 fL
- Mono (9 h): 1.8%
- Neu (9 h): 16.2%
- PT (9 h): 16.4 s
- Plat (9 h): 114 x10_4/uL
- RBC (9 h): 614.2 x10_4/ul
- Ret (9 h): 8.3%
- WBC (9 h): 72.6 x10_2/uL
- KIDNEY_L (9 h): 0.9 g
- KIDNEY_R (9 h): 0.9 g
- KIDNEY_TOTAL (9 h): 1.8 g
- LIVER (9 h): 8.5 g
- A/G (9 h): 1.1
- ALP (9 h): 1275.6 IU/L
- ALT (9 h): 39.2 IU/L
- AST (9 h): 70.2 IU/L
- BUN (9 h): 12.8 mg/dL
- CRE (9 h): 0.1 mg/dL
- Ca (9 h): 10.6 mg/dL
- Cl (9 h): 106.4 meq/L
- DBIL (9 h): 0.002 mg/dL
- GLC (9 h): 190.2 mg/dL
- IP (9 h): 9.5 mg/dL
- K (9 h): 4.2 meq/L
- LDH (9 h): 142.8 IU/L
- Na (9 h): 143.8 meq/L
- PL (9 h): 119.6 mg/dL
- RALB (9 h): 2.8 g/dL
- TBIL (9 h): 0.01 mg/dL
- TC (9 h): 68.8 mg/dL
- TG (9 h): 48.4 mg/dL
- TP (9 h): 5.4 g/dL
- gamma-GTP (9 h): 1.2 IU/L
- TERMINAL_BW (24 h): 222 g
- APTT (24 h): 20.5 s
- Bas (24 h): 0%
- Eos (24 h): 0.8%
- Fbg (24 h): 302.2 mg/dL
- Hb (24 h): 12.9 g/dL
- Ht (24 h): 38.6%
- Lym (24 h): 81.8%
- MCH (24 h): 20.5 pg
- MCHC (24 h): 33.3%
- MCV (24 h): 61.6 fL
- Mono (24 h): 2.6%
- Neu (24 h): 13.8%
- PT (24 h): 16.3 s
- Plat (24 h): 111.9 x10_4/uL
- RBC (24 h): 627.6 x10_4/ul
- Ret (24 h): 7.4%
- WBC (24 h): 75.5 x10_2/uL
- KIDNEY_L (24 h): 1 g
- KIDNEY_R (24 h): 1 g
- KIDNEY_TOTAL (24 h): 1.9 g
- LIVER (24 h): 9.6 g
- A/G (24 h): 1.2
- ALP (24 h): 1761 IU/L
- ALT (24 h): 45.6 IU/L
- AST (24 h): 76.8 IU/L
- BUN (24 h): 15.2 mg/dL
- CRE (24 h): 0.1 mg/dL
- Ca (24 h): 10.8 mg/dL
- Cl (24 h): 106.2 meq/L
- DBIL (24 h): 0 mg/dL
- GLC (24 h): 184.8 mg/dL
- IP (24 h): 7.4 mg/dL
- K (24 h): 4.4 meq/L
- LDH (24 h): 166 IU/L
- Na (24 h): 144.4 meq/L
- PL (24 h): 144 mg/dL
- RALB (24 h): 3 g/dL
- TBIL (24 h): 0.01 mg/dL
- TC (24 h): 82.4 mg/dL
- TG (24 h): 93 mg/dL
- TP (24 h): 5.6 g/dL
- gamma-GTP (24 h): 1.2 IU/L
